≈ marks a conversion by molar mass, not a printed value. Where “and” joins values, the source holds several entries; their conditions need not be identical. Equal values may be shown once.

The source of these data is DBAASP.

What all share (experiment): ≥ marks a high value that may be exact or a test limit, other limits are often not marked, values filed in µg/mL are converted to µM
Assay [1] concerns Escherichia coli ATCC 25922.
Assay [2] has as its system Pseudomonas aeruginosa PAO1.
Assay [3] has as its system Streptococcus agalactiae BNCC 185941.
Assay [4] relates to Lacticaseibacillus rhamnosus 1.0936.
Assay [5] relates to Salmonella enterica subsp. enterica serovar Typhimurium ATCC 14028.
The test system of assay [6] is Lacticaseibacillus rhamnosus 1.0911.
Assay [7] concerns Escherichia coli K88.
Assay [8] relates to Lacticaseibacillus rhamnosus 8014.
For assay [9], the system named is Staphylococcus aureus ATCC 29213.
Assay [10] concerns Escherichia coli O157:H7 CICC 21530.
For assay [11], the system named is Pseudomonas aeruginosa ATCC 27853.
Assay [12] has as its system Staphylococcus epidermidis ATCC 12228.
The subject of assay [13] is Staphylococcus aureus ATCC 43300.
In assay [14] the test system is Lacticaseibacillus rhamnosus 1.9021.
Assay [15] concerns Salmonella enterica subsp. enterica serovar Choleraesuis CVCC 503.
Assay [16] deals with Salmonella enterica subsp. enterica serovar Pullorum C79-13.
Assay [17] relates to Corynebacterium xerosis.
In assay [18] the test system is Enterobacter cloacae C601.
In assay [19] the test system is Pseudomonas aeruginosa H547.
The test system of assay [20] is Mycobacterium tuberculosis H37Rv.
The test system of assay [21] is Escherichia coli KF130.
For assay [22], the system named is Escherichia coli KF111.
The subject of assay [23] is Acinetobacter calcoaceticus C402.
In assay [24] the test system is Staphylococcus haemolyticus.
In assay [25] the test system is Enterococcus faecalis C625.
Assay [26] relates to Burkholderia cepacia ATCC 25416.
The test system of assay [27] is Stenotrophomonas maltophilia ATCC 13637.
For assay [28], the system named is Staphylococcus aureus ATCC 25923.
In assay [29] the test system is Staphylococcus aureus K147.
Assay [30] concerns Pseudomonas aeruginosa H187.
Assay [31] has as its system Salmonella enterica subsp. enterica serovar Typhimurium ATCC 14028s.
For assay [32], the system named is Enterobacter cloacae ATCC 13047.
The test system of assay [33] is Staphylococcus aureus SAP 0017.
Assay [34] concerns Candida albicans CAN105.
In assay [35] the test system is Pseudomonas aeruginosa Z61.
Assay [36] concerns Enterococcus faecalis ATCC 29212.
Assay [37] has as its system Staphylococcus epidermidis.
Assay [38] has as its system Streptococcus pyogenes ATCC 19615.
Assay [39] concerns Pseudomonas aeruginosa K799.
In assay [40] the test system is Pseudomonas aeruginosa H374.
Assay [41] concerns Listeria monocytogenes NCTC 7973.
In assay [42] the test system is Pseudomonas aeruginosa H744.
The subject of assay [43] is Acinetobacter calcoaceticus ATCC 23055.
The test system of assay [44] is Escherichia coli INV-a.
Assay [45] relates to Lactococcus lactis MG1363.
The test system of assay [46] is Legionella pneumophila Lens.

A word on the MIC: it is the smallest concentration in the dilution series that meets the test's criterion for growth inhibition. Consider `CC(C)C[C@H](NC(=O)CNC(=O)[C@H](Cc1c[nH]c2ccccc12)NC(=O)CNC(=O)[C@H](CC(C)C)NC(=O)[C@H](CCCCN)NC(=O)[C@@H](N)CCCCN)C(=O)N[C@@H](CCCCN)C(=O)N[C@@H](CCCCN)C(N)=O` [KKLGWGLKK], for which the MIC is above 128 µM in assay [1]; above 128 µM in assay [2]; at least 128 µM in assay [3]; at least 128 µM in assay [4]; above 128 µM in assay [5]; at least 128 µM in assay [6]. Also, the MIC in [7] is at least 128 µM; in assay [8] it was at least 128 µM; in assay [9], above 128 µM; in [10], at least 128 µM; in assay [11] it was above 128 µM; in [12] it was above 128 µM. Also, the MIC is above 128 µM in assay [13], at least 128 µM in assay [14], at least 128 µM in assay [15] and at least 128 µM in assay [16].

On to `CC[C@H](C)[C@H](NC(=O)[C@H](CC(C)C)NC(=O)[C@@H]1CCCN1C(=O)[C@H](CCCCN)NC(=O)[C@H](C)NC(=O)[C@@H](NC(=O)[C@@H](NC(=O)[C@@H](NC(=O)[C@@H](NC(=O)[C@H](CCCCN)NC(=O)[C@H](CCCCN)NC(=O)[C@H](C)NC(=O)[C@H](C)NC(=O)[C@H](CO)NC(=O)[C@@H](NC(=O)[C@H](CC(C)C)NC(=O)[C@H](CCCCN)NC(=O)[C@H](CCCCN)NC(=O)[C@@H](NC(=O)[C@H](Cc1ccccc1)NC(=O)[C@H](CO)NC(=O)[C@H](CCCCN)NC(=O)[C@H](Cc1c[nH]c2ccccc12)NC(=O)[C@@H](N)CCCCN)[C@@H](C)CC)[C@@H](C)O)C(C)C)C(C)C)[C@@H](C)O)[C@@H](C)O)C(=O)N[C@@H](CO)C(=O)N[C@@H](CO)C(=O)O` [KWKSFIKKLTSAAKKVVTTAKPLISS], for which the minimal inhibitory concentration (MIC) is 0.349 µM (≈ 1 µg/mL) in [17]; 2.8 µM and 1.4 µM in [18]; 1.4 µM (≈ 4 µg/mL) in [19]; 0.734 µM (≈ 2.1 µg/mL) in assay [20]; 0.349 µM (≈ 1 µg/mL) in [21]; 0.699 µM (≈ 2 µg/mL) in assay [22]. For the same compound, the MIC was 2.8 µM and 1.4 µM in assay [23]; 22.4 µM (≈ 64 µg/mL) in assay [24]; 5.59 µM and 11.2 µM in assay [25]; 22.4 µM (≈ 64 µg/mL) in assay [26]; 0.699 µM (≈ 2 µg/mL) in [27]; 22.4 µM (≈ 64 µg/mL) in [28]. The MIC is 22.4 µM (≈ 64 µg/mL) in assay [29]; 11.2 µM (≈ 32 µg/mL) in assay [30]; 2.8 µM and 4 µM in [11]; 1.05 µM (≈ 3 µg/mL) in assay [31]; 0.699 µM (≈ 2 µg/mL) in assay [32]; 22.4 µM (≈ 64 µg/mL) in assay [33]. Moreover, the MIC was 22.4 µM (≈ 64 µg/mL) in [34]; 1.05 µM (≈ 3 µg/mL) in assay [35]; above 22.4 µM in [36]; 11.2 µM (≈ 32 µg/mL) in [37]; 5.59 µM (≈ 16 µg/mL) in assay [38]; 1.4 µM (≈ 4 µg/mL) in assay [39]. Further, the MIC in assay [40] was 0.699 µM (≈ 2 µg/mL); in assay [41] it was 5.59 µM (≈ 16 µg/mL); in assay [42] it was 0.699 µM (≈ 2 µg/mL); in assay [43], 0.699 µM (≈ 2 µg/mL).

For the compound `CC[C@H](C)[C@H](NC(=O)CNC(=O)[C@H](CCCCN)NC(=O)[C@H](Cc1c[nH]c2ccccc12)NC(=O)[C@H](CC(N)=O)NC(=O)[C@H](C)N)C(=O)N[C@@H](C)C(=O)N[C@@H](C)C(=O)N[C@@H](CCSC)C(=O)N[C@@H](C)C(=O)N[C@@H](CCCCN)C(=O)N[C@@H](CCCCN)C(=O)N[C@@H](CC(C)C)C(=O)N[C@@H](CC(C)C)C(N)=O` [ANWKGIAAMAKKLL], the MIC in assay [44] was at least 33 µM; in [45], 18 µM (≈ 27.3 µg/mL).

The compound `CC[C@H](C)[C@H](NC(=O)[C@H](CC(C)C)NC(=O)CNC(=O)[C@H](CCCCN)NC(=O)[C@@H](NC(=O)[C@@H](NC(=O)[C@H](CCC(=O)O)NC(=O)[C@@H](NC(=O)[C@@H](NC(=O)[C@H](CCCCN)NC(=O)[C@H](C)NC(=O)[C@@H](NC(=O)[C@@H](NC(=O)CNC(=O)[C@H](C)NC(=O)[C@@H](N)CCSC)C(C)C)[C@@H](C)CC)[C@@H](C)CC)C(C)C)[C@@H](C)CC)C(C)C)C(=O)N[C@@H](CC(=O)O)C(=O)N[C@@H](CCC(N)=O)C(=O)N[C@@H](Cc1ccccc1)C(=O)N[C@H](C(=O)N[C@@H](CCC(N)=O)C(=O)N[C@@H](CCCCN)C(=O)O)[C@@H](C)O` [MAGVIAKIVEIVKGLIDQFTQK] displayed an MIC in [46] of 1.3 µM (≈ 3.12 µg/mL).
